According to patent US6046228A, “Anti-viral pharmaceutical compositions containing saturated 1,2-dithiaheterocyclic compounds and uses thereof” (priority 1999, dated 2000):
Where two headings read alike, the source gives them in different places.

Experiments:
HIV-1 p7NC protein = molecular target: T1, HIV-1 p7NC protein (Human immunodeficiency virus type 1 group M subtype B, UniProt P04591); assay: Trp37 zinc finger fluorescence assay (zinc ejection from p7NC); type: biochemical; conditions: in words; for zinc ejection: FIG. 1(A)
T1 construct: recombinant HIV-1 p7NC protein
Method: Fluorescence measurements of the Trp^37 residue in the C-terminal zinc finger of the recombinant HIV-1 p7NC protein were performed as previously described (Rice et al., Science 270:1194, 1995). The p7NC protein was prepared at 20 μg/ml in 10 mM sodium phosphate buffer (pH 7.0), treated with 25 μM of each compound, then after indicated time intervals the samples were diluted 1/10 in 10 mM sodium phosphate buffer (pH 7.0) and the fluorescence intensity measured. The excitation and emission wavelengths utilized with the Shimadzu RF5000 spectrofluorimeter were 280 nm and 351 nm, respectively. In an alternate assay, the zinc-selective fluorescent probe N-(6-methoxy-8quinolyl-)-p-toluenesulfonamide (TSQ, Molecular Probes, Eugene, Oreg.) originally described by Fredrickson (J. Neurosci. Meth. 20:91, 1987) was utilized to measure zinc released from the p7NC protein in vitro. Briefly, 2 μM recombinant HIV-1 p7NC protein in 10 mM sodium phosphate buffer, pH 7.0, 10% glycerol was treated with 10 μM 624151 ([…] total volume in 96-well plates), and the time-dependent increase in fluorescence was measured on a Labsystems Fluoroskan II (360 nm excitation filter and 460 nm emission filter) over a period of 2 hours. Induction of alterations of p7NC proteins within intact virions involved treatment of HIV-1MN for 1 hour at 37° C. with 25 μM test compound. Samples were centrifuged 1 hour at 4° C. under 18,000×g to pellet the virus from the drug. Virus pellets were resolved by non-reducing SDS-PAGE and analyzed by immunoblot using monospecific rabbit antisera to the purified p7NC protein.
^b The percent decrease in RFU was calculated based on measurement of
the initial fluorescence of the p7NC protein before and 10 minutes after
treatment with the 25 μM of compound at ambient temperature.
The ability of 624151 to chemically interact with the zinc fingers of the HIV-1 p7NC protein was initially determined by a fluorescence assay (Rice et al., Science 270:1194-1197, (1995)) that measures a loss in intrinsic fluorescence of the tryptophan (Trp^37) residue in the second finger of the protein that occurs upon loss of zinc from the finger (Summers et al., Protein Sci. 1:563, 1992). […] As the 624151 modifies the zinc finger thiolates and the zinc is ejected over time, the metal is bound by the TSQ fluorochrome (FIG. 1(B)).
Sodium Phosphate buffer, pH 7.0 in 1 ml was treated with 25 μM of
compound. At indicated times, the mixture was diluted 1/10 and the
relative fluorescence units (RFU) measured in a Shimadzu RF5000
spectrofluorimeter with […] and Em = 351 mn. Following
loss of zinc from the Cterminal zinc finger, the Trp37 residue folds away
from the # aqueous environment and experiences a loss of fluorescence.

HIV-1RF = assay: XTT cytoprotection (cytopathicity) anti-HIV assay, CEM-SS cells; type: cell-based; conditions: for EC50: Human immunodeficiency virus 1, CEM-SS; for antiviral activity / efficacy: in words
Method: (§1) Initial anti-HIV screening was performed with CEM-SS cells and HIV-1RFusing the XTT cytoprotection assay as previously described (Weislow et al., J. National Cancer Inst. 81: 577-586, (1989)). HIV-1 isolates included common laboratory stains (RF, IIIB and MN), as well as a panel of HIV-1 clinical isolates (Cushman et al., J. Med. Chem. 37: 3040-3050, (1994)). The pyridone-resistant HIV-1A17 isolate (Nunberg et al., J. Virol., 65: 4887-4892 (1991)) was obtained from Emilio Emini at Merck Sharpe and Dohme Laboratories. Phytohemagglutinin-stimulated human peripheral blood lymphocytes (PBLs) and fresh monocyte-macrophage (Mono/MF) cultures were prepared and utilized in antiviral assays as previously described (Rice et al., Proc. Nat'l. Academy Science, USA 90: 9721-9724, (1993)); (Cushman et al., J. Med. Chem. 37: 3040-3050, (1994)). EC50 values for these cultures indicate the drug concentration that provided a 50% reduction in viral p24 production. […] The compounds can be synthesized according to the teachings of Singh et al., Sulfur Letters 8: 107-114, (1988). […] MT-2, MT-4, U1, HeLa-CD4-LTR-β-gal and 174xCEM cells were obtained from the AIDS Research and Reference Program (National Institute of Allergy and Infectious Disease, National Institutes of Health, Bethesda, Md. USA), as were the HIV-2MS and the AZT-resistant HIV-1G910-6 isolates.
(§2) Racemate and enantiomers of the cis-1,1-dioxo[1,2]dithiane-4,5-diol were synthesized and evaluated for antiviral activity in the XTT assay as described hereinabove.

[1] = system: monocyte-macrophage (Mo/M.PHI.) cultures; assay: cytotoxicity in monocyte-macrophage cultures; type: cell-based
Method: (§3) Initial anti-HIV screening was performed with CEM-SS cells and HIV-1RFusing the XTT cytoprotection assay as previously described (Weislow et al., J. National Cancer Inst. 81: 577-586, (1989)). HIV-1 isolates included common laboratory stains (RF, IIIB and MN), as well as a panel of HIV-1 clinical isolates (Cushman et al., J. Med. Chem. 37: 3040-3050, (1994)). The pyridone-resistant HIV-1A17 isolate (Nunberg et al., J. Virol., 65: 4887-4892 (1991)) was obtained from Emilio Emini at Merck Sharpe and Dohme Laboratories. Phytohemagglutinin-stimulated human peripheral blood lymphocytes (PBLs) and fresh monocyte-macrophage (Mono/MF) cultures were prepared and utilized in antiviral assays as previously described (Rice et al., Proc. Nat'l. Academy Science, USA 90: 9721-9724, (1993)); (Cushman et al., J. Med. Chem. 37: 3040-3050, (1994)). EC50 values for these cultures indicate the drug concentration that provided a 50% reduction in viral p24 production. […] The compounds can be synthesized according to the teachings of Singh et al., Sulfur Letters 8: 107-114, (1988). The 4,5-cis-dihydroxy(1,1-dioxy-1,2,-dithiohexane) compound (NSC 624151) has been abbreviated as 624151 for convenience. MT-2, MT-4, U1, HeLa-CD4-LTR-β-gal and 174xCEM cells were obtained from the AIDS Research and Reference Program (National Institute of Allergy and Infectious Disease, National Institutes of Health, Bethesda, Md. USA), as were the HIV-2MS and the AZT-resistant HIV-1G910-6 isolates.

CEM-SS cells = assay: XTT assay, cytotoxicity (IC50), CEM-SS cells; type: cell-based; conditions: Homo sapiens, CEM-SS, cytotoxicity, CEM-SS cells; read-out: XTT Assay IC50
Method: as §1, §2

HIV-1ADA = assay: antiviral assay in monocyte-macrophage cultures (p24); type: cell-based
Method: as §3, with “isolates. […]” for “isolates.”

[2] = CEM-SS cells, HIV-1RF, read-out: XTT Assay EC50
[3] = Human immunodeficiency virus 1, read-out: Mo/M.PHI. EC50

| Structure (SMILES) | IC50 [1] | IC50 (CEM-SS cells) | EC50 (HIV-1ADA; [3]) | further results |
| --- | --- | --- | --- | --- |
| O=S1(=O)C[C@@H](O)[C@H](O)CS1 (relative stereo) [NSC 624152] | > 100 µM | 135 µM | – | reactivity with the zinc fingers (HIV-1 p7NC protein): equivalent reactivity with the zinc fingers; EC50 (HIV-1RF; [2]): 13.1 µM; antiviral activity / efficacy (HIV-1RF): only a slight reduction in the antiviral efficacy; EC50 (HIV-1ADA; Human immunodeficiency virus 1, HIV-1ADA, monocyte/macrophage cultures, 50% reduction in p24, read-out: Mo/M.PHI. EC50): 9.1 µM |
| [O-][S+]1C[C@@H](O)[C@H](O)CS1 (relative stereo) [NSC 663603] | > 100 µM | 59.3 µM | > 100 µM | – |
| O[C@@H]1CSSC[C@H]1O (relative stereo) [NSC 663605] | > 100 µM | > 200 µM | > 100 µM | – |
| [O-][S+]1C[C@@H](O)[C@@H](O)CS1 (relative stereo) [NSC 667090] | > 100 µM | 103 µM | > 100 µM | reactivity with the zinc fingers (HIV-1 p7NC protein): essentially a complete loss of reactivity with the zinc fingers; antiviral activity / efficacy (HIV-1RF): complete abolition of antiviral activity |
| CC(=O)O[C@H]1CSS(=O)(=O)C[C@H]1OC(C)=O (relative stereo) [NSC 667091] | > 100 µM | 9.2 µM | 25 µM | – |
| CC(=O)O[C@@H]1CSSC[C@H]1OC(C)=O (relative stereo) [NSC 667092] | > 100 µM | > 200 µM | > 100 µM | reactivity with the zinc fingers (HIV-1 p7NC protein): essentially a complete loss of reactivity with the zinc fingers; antiviral activity / efficacy (HIV-1RF): complete abolition of antiviral activity |
| CC(=O)O[C@@H]1CS[S+]([O-])C[C@H]1OC(C)=O (relative stereo) [NSC 667094] | > 100 µM | 22.1 µM | 5.5 µM | – |
| Nc1ccn([C@H]2CC[C@@H](CO)O2)c(=O)n1 [DDC, reference compound] | – | – | – | zinc ejection (HIV-1 p7NC protein): do not |
| CSC[C@H](NC(=O)COc1cccc2cnccc12)C(=O)N[C@@H](Cc1ccccc1)[C@H](O)C(=O)N1CSC[C@H]1C(=O)NC(C)(C)C [KNI-272, reference compound] | – | – | – | zinc ejection (HIV-1 p7NC protein): do not |
| [O-][S+]1CCCCS1 (stereo not drawn) [NSC 56224] | > 100 µM | 26.2 µM | > 100 µM | – |
| OCC1(CO)CSSC1 [NSC 72270] | > 100 µM | > 200 µM | > 100 µM | – |
| NC(=O)NN=C1CSSC1 [NSC 208744] | – | 127 µM | – | EC50 (HIV-1RF; [2]): 28.7 µM |
| O=C1NC(=O)C2(CSSC2)N1 [NSC 208750] | – | 24.8 µM | – | EC50 (HIV-1RF; [2]): 1.83 µM |
| NC1(C(=O)O)CSSC1 [NSC 212561] | – | 10.7 µM | – | EC50 (HIV-1RF; [2]): 3.06 µM |
| O=S1(=O)CCCCS1 [NSC 627175] | > 100 µM | 5.7 µM | 25 µM | – |
| O=C(O)CCCCC1CCSS1 (stereo not drawn) [NSC 628502] | – | > 1210 µM | – | EC50 (HIV-1RF; read-out: XTT Assay EC50, CEM-SS cells, HIV-1RF): 590 µM |
| CC(=O)OCC1(COC(C)=O)CSSC1 [NSC 660167] | > 100 µM | > 200 µM | > 100 µM | – |
| CC(=O)OCC1(COC(C)=O)CSS(=O)(=O)C1 [NSC 661126] | > 100 µM | 30.3 µM | 21 µM | EC50 (HIV-1RF; [2]): 9.8 µM |
| O=S1(=O)CC(CO)(CO)CS1 [NSC 661127] | – | 378 µM | – | EC50 (HIV-1RF; [2]): 34 µM |
| [O-][S+]1CC(CO)(CO)CS1 (stereo not drawn) [NSC 661753] | > 100 µM | > 200 µM | 46 µM | – |
| CC(=O)OCC1(COC(C)=O)CS[S+]([O-])C1 (stereo not drawn) [NSC 661754] | > 100 µM | 14.3 µM | > 100 µM | – |
| O[C@@H]1CSSC[C@@H]1O [NSC 667089] | > 100 µM | 20.1 µM | > 100 µM | – |
| CC(=O)O[C@H]1CSSC[C@H]1OC(C)=O [NSC 667093] | > 100 µM | > 200 µM | > 100 µM | – |
| CC(C)OC(=O)c1cc(NC(=S)OC(C)C)ccc1Cl [UC38, reference compound] | – | – | – | zinc ejection (HIV-1 p7NC protein): do not |
